Experimental data taken from US20080287532A1, “OXACYCLOPENTENE-2 DERIVATIVES” (priority 2007, published 2008).
Like-named read-outs stand apart in the source and are kept apart here.

Legend:
[1] = system: antibody production (AFC) after Adriamycin immunosuppression; test: Adriamycin-induced immunosuppression model, antibody (AFC) response to SRBC; type: in vivo, mice
Experimental: (§1) For induction of a primary humoral PFC response, C57BL/6J mice were immunized intraperitoneally with 0.1 ml of a 5% suspension of SRBC, containing 1×10^8 cells. On day 5 after immunization animals were sacrificed under deep ether anesthesia, spleens were dissected out and minced through a stainless steel mesh. Individual spleen cell suspensions were washed three times with Hank's BSS, nucleated cells number was determined with a haemocytometer, viability was assessed by exclusion of trypan blue and adjusted to 1×10^7 viable cells per ml in Medium 199 containing Earle's salts and L-glutamine.
(§2) For the PFC assay, suspensions containing 1×10^6 spleen cells, 1×10^9 SRBCs and guinea pig serum (diluted 1:10, a source of complement), were introduced into a Cunningham chambers (100 μl volume) and incubated for 1 h at 37° C. The number of hemolytic plaques, produced by anti-SRBC IgM secreting plasma cells, was counted using a light microscope, and the number of PFC determined for each mice was expressed per 1×10^6 spleen cells and per whole spleen.
Immunosupression in mice was induced by parentreral administration of Adriamycin or Cyclophosphamide. Mice were injected with Adriamycin intraperitoneally in a dose of 5 mg/kg one day before the immunization with SRBC. Cyclophosphamide was used in a dose of 100 mg/kg 24 hours before the antigen challenge with SRBC.
Even in this extreme situation, administration of 2-methyl-3-ethoxycarbonyl-4-(2-methoxyphenyl)-5-methoxy-(1-oxacyclopentene-2, example 6) in dose 2.5 mg/kg produces a nearly 3 folds increase in antibody levels. […] (See FIG. 8).

[2] = system: anti-SRBC IgM secreting plasma cells (antibody-forming cells, AFC); type: in vivo; settings: for AFC number increase, % of control: mice immunized with SRBC
Excerpt: Humoral-mediated immune response is routinely measured using the antibody-forming cell (AFC) assay. Primarily used for evaluating humoral immunity, this assay, in fact, evaluates overall immune competence including T- and B-cell function, antigen processing and presentation. Sheep Red Blood Cells (SRBC) are the most common T-dependent antigen used for this assay.
Primary IgM response after SRBC administration was quantitatively estimated using a modified hemolytic plaque-forming cell assay
Since SRBC are T-dependent antigen, a normal AFC response depends on multiple factors: antigen processing and presentation actuated by macrophages, appropriate T-cell signalling, B-cells differentiation, and affinity maturation of antibodies in plasma cells.
as §1, §2

[3] = system: cellular immune response (T-cells response) to SRBC; test: Delayed Type Hypersensitivity test (DTH), foot pad edema after SRBC challenge; type: in vivo, mice
Experimental: The method of Lagrange et al. was used. Mice were sensitized intravenously (iv) with 10^5 SRBC in saline. After 4 days, the mice were given eliciting dose of the antigen: 10^8 SRBS in 20 mcl of sterile saline into right hind paw, left hind paw was injected with 20 mcl of sterile saline. In 24 hours after challenge, the foot pad edema volume was measured using a caliper. The difference in volume (mcl) between the right paw (antigen-injected) and left paw (saline-injected) is calculated (Δ) and used as edema volume.

[4] = Administered dose related to LD50; type: in vivo; settings: Levamisol dose 2.5 mg/kg
[5] = dose 10 mg/kg, mice sensitized with SRBC

Row | SMILES | AFC number increase, % of control ([2]; dose 2.5 mg/kg) [%] | AFC number increase, % of control ([2]; dose 5 mg/kg) [%] | AFC number increase, % of control ([2]; dose 10 mg/kg) [%] | DTH foot pad edema, % of control [3, 5] [%] | other results
1 | COc1cccc2c1C(=O)c1c(O)c3c(c(O)c1C2=O)C[C@@](O)(C(=O)CO)C[C@@H]3O[C@H]1C[C@H](N)[C@H](O)[C@H](C)O1 [Adriamycin] | – | – | – | – | Total number of AFC, % of initial values ([1]; after Adriamycin administration (5 mg/kg i.p.)): 1-2%
2 | CCOC(=O)C1=C(C)OC(OC)C1CC(C)C (stereo not shown) [Example 1] | 209 | 275 | 453 | 300 | –
3 | CCCCCC1C(C(=O)OCC)=C(C)OC1OC (stereo not shown) [Example 2] | 360 | 331 | 330 | 220 | –
4 | CCCCCCCCCC1C(C(=O)OCC)=C(C)OC1OC (stereo not shown) [Example 3] | 225 | 289 | 326 | 250 | –
5 | CCCCCCCCCCCC1C(C(=O)OCC)=C(C)OC1OC (stereo not shown) [Example 4] | 253 | 330 | 282 | 240 | –
6 | CCOC(=O)C1=C(C)OC(OC)C1c1ccccc1 (stereo not shown) [Example 5] | 202 | 324 | 259 | 200 | –
7 | CCOC(=O)C1=C(C)OC(OC)C1c1ccccc1OC (stereo not shown) [Example 6] | 260 | 229 | 440 | 190 | Increase in antibody levels ([1]; dose 2.5 mg/kg, Adriamycin 5 mg/kg i.p. one day before SRBC immunization): ~3 folds
8 | CCOC(=O)C1=C(C)OC(OC)C1c1ccc(Cl)cc1Cl (stereo not shown) [Example 7] | 269 | 302 | 358 | 230 | –
9 | CCOC(=O)C1=C(C(Br)Br)OC(OC)C1c1ccccc1 (stereo not shown) [Example 8] | 188 | 276 | 271 | 260 | –
10 | COC1OC(C)=C(C(=O)O)C1CC(C)C (stereo not shown) [Example 9] | 230 | 320 | 360 | 360 | –
11 | COC1OC(C)=C(C(=O)[O-])C1CC(C)C.[Li+] (stereo not shown) [Example 10] | 290 | 320 | 470 | 360 | –
12 | CCCCCCC1C(C(=O)OCC)=C(C)OC1OC (stereo not shown) [Example 11] | 245 | 241 | 287 | 210 | –
13 | CCCCC1C(C(=O)OCC)=C(C)OC1OC (stereo not shown) [Example 12] | 251 | 239 | 291 | 230 | –
14 | CCOC(=O)C1=C(C)OC(OC)C1c1cccnc1 (stereo not shown) [Example 13] | 168 | 201 | 191 | 180 | –
15 | CCOC(=O)C1=C(C)OC(OC)C1c1cccc(OC)c1 (stereo not shown) [Example 14] | 135 | 187 | 254 | 200 | –
16 | CCOC(=O)C1=C(C)OC(OC)C1c1ccc(OC)cc1 (stereo not shown) [Example 15] | 291 | 312 | 267 | 160 | –
17 | CCOC(=O)C1=C(CC)OC(OC)C1c1ccc(C)cc1C (stereo not shown) [Example 16] | 165 | 192 | 217 | 140 | –
18 | c1ccc([C@H]2CN3CCSC3=N2)cc1 [Levamisol, reference compound] | 121 | – | – | – | Increase in antibody formation ([2]; Levamisol positive reference, dose 2.5 mg/kg): 20%; Toxic effects (AFC not determined at higher doses) ([2]; mouse, in vivo): ND (toxic effects); DTH foot pad edema, % of control ([3]; Levamisol positive control, dose 2.5 mg/kg): 240%; Cellular immune response increase ([3]; after Levamisol administration): 240%; Antibody response in Adriamycin immunosuppression model ([1]; Adriamycin-induced immunosuppression): no antibody response; Administered dose as % of LD50 [4]: 10 % of LD50
